From patent US20220348595A1, “COMPOUNDS AND METHODS FOR THE TARGETED DEGRADATION OF ESTROGEN RECEPTORS” (Endotarget Inc., priority 2021, published 2022) come the findings set out here.

What all share (assay type): cell-based
The target of test [1] is T1, ER (Homo sapiens, UniProt P03372).
T1 construct: endogenous in cells; host or cells: T47d-kb-Luc (T47D stably transfected with a luciferase reporter gene only)
T1 sequence (P03372 1-595): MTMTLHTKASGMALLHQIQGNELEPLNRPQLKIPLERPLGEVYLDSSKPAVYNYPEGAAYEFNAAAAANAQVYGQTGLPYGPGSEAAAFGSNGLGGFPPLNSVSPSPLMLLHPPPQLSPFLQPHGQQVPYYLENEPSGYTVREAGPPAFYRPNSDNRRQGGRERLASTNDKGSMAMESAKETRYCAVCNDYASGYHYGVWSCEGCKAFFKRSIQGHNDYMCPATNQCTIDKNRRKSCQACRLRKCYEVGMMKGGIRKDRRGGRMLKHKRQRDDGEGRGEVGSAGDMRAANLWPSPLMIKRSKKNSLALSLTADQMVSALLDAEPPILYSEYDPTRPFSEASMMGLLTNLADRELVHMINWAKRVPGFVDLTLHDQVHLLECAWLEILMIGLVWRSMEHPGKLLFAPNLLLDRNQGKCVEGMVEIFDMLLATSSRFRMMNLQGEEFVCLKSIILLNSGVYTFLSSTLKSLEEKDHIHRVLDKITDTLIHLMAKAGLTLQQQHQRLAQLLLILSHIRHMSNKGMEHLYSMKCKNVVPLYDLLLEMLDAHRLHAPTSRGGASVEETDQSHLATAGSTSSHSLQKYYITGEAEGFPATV
In words: ER antagonism (T47D ERE luciferase), T47d-kb-Luc cells. Particulars: read-out: IC50 (ER antagonistm). The procedure, abridged: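 Stably transfected T47d-kb-Luc human breast cancer cells were used, and antagonism was measured as inhibition of estradiol-driven activity. Data were normalised to the estradiol control. Five concentrations were tested in quadruplicate across at least three experiments.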

For test [2], the system named is MCF-7 breast cancer cells. In words: MCF-7 proliferation / cell viability assay. The conditions noted are these: Homo sapiens, MCF7; MCF-7 proliferation with 0.1 nM 17-beta estradiol; read-out: IC50 (anti-proliferation). The procedure, abridged: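 MCF-7 cells in 5% FBS DMEM were exposed for 5 days to compound at 6 doses from 10^−10 M to 10^−5 M, with DMSO as vehicle. Viable cells were counted by Coulter counter. Survival ratio = treated/vehicle viable cell number, vehicle set to 100%.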

Test [3] concerns the target T2, ERα (Homo sapiens, UniProt P03372).
T2 construct: endogenous in cells; host or cells: MCF-7
T2 sequence (P03372 1-595): T1 sequence (P03372 1-595)
Briefly: ER degradation in MCF-7 cells (Western blot). Particulars: for DC50: ER degradation, 24 hours; for Dmax: MCF7, Maximal ER degradation, read-out: Dmax. The procedure, abridged:
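MCF-7 cells treated with a range of compound concentrations for 24 hours, then lysed; 50 μg protein probed for ERα by Western blot with infrared imaging. DC50 is concentration giving 50% ER reduction; Dmax is the highest percentage reduction over the range tested.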
In general terms: A western blot detects proteins with antibodies after separation by electrophoresis.

One may read the DC50 as the concentration at which degradation of the target reaches its halfway point. Low values mean degradation at low concentration, high ones degradation only at high concentration. The term Dmax denotes the largest share of the target that was removed.

In the case of `CC/C(=C(\c1ccc(OCCN2CCN(CCCNc3ccc4c(c3)C(=O)N(C3CCC(=O)NC3=O)C4=O)CC2)cc1)c1ccc(B(O)O)cc1)c1ccccc1` (stereo not drawn) [Compound 16, (E)-(4-(1-(4-(2-(4-(3-((2-(2,6-dioxopiperidin-3-yl)-1,3-dioxoisoindolin-5-yl)amino)propyl)piperazin-1-yl)ethoxy)phenyl)-2-phenylbut-1-en-1-yl)phenyl)boronic acid], in test [1], the IC50 was 10 to 50 nM. The IC50 in test [2] lay in the range of 10 to 50 nM. Moreover, in test [3], the DC50 was 10 to 50 nM and the maximal degradation (Dmax) is greater than 75%.

Consider `CC/C(=C(\c1ccc(OCCN2CCN(CC3CCN(c4ccc5c(c4)CN([C@H]4CCC(=O)NC4=O)C5=O)CC3)CC2)cc1)c1ccc(B(O)O)cc1)c1ccccc1` [Compound 71], for which the IC50 in test [1] and in test [2] was less than 10 nM each time. In addition, the DC50 in test [3] is less than 10 nM. Moreover, in test [3], the Dmax is greater than 90%.

Turning to `CC/C(=C(/c1ccc(B(O)O)cc1)c1ccc(N2CCN(C(=O)N3CCN(c4ccc5c(c4)CN([C@H]4CCC(=O)NC4=O)C5=O)CC3)CC2)cc1)c1ccccc1` [Compound 107, (S,E)-(4-(1-(4-(4-(4-(2-(2,6-dioxopiperidin-3-yl)-1-oxoisoindolin-5-yl)piperazine-1-carbonyl)piperazin-1-yl)phenyl)-2-phenylbut-1-en-1-yl)phenyl)boronic acid], in test [1], the IC50 is less than 10 nM. The IC50 in test [2] was less than 10 nM. Also, in test [3], the DC50 is less than 10 nM and the Dmax is greater than 90%.

Regarding `CC/C(=C(/c1ccc(B(O)O)cc1)c1ccc(N2CCC(CNC3CCN(c4ccc5c(c4)C(=O)N(C4CCC(=O)NC4=O)C5)CC3)CC2)cc1)c1ccccc1` (stereo not drawn) [Compound 14, (E)-(4-(1-(4-(4-(((1-(2-(2,6-dioxopiperidin-3-yl)-3-oxoisoindolin-5-yl)piperidin-4-yl)amino)methyl)piperidin-1-yl)phenyl)-2-phenylbut-1-en-1-yl)phenyl)boronic acid], the IC50 in test [1] and in test [2] was less than 10 nM each time. The DC50 in test [3] is less than 10 nM. Besides, the greatest degradation seen (Dmax) in test [3] was greater than 90%.

In the case of `CC/C(=C(\c1ccc(OCCN2CCN(C(=O)N3CCN(c4ccc5c(c4)CN(C4CCC(=O)NC4=O)C5=O)CC3)CC2)cc1)c1ccc(B(O)O)cc1)c1ccccc1` (stereo not drawn) [Compound 86, (E)-(4-(1-(4-(2-(4-(4-(2-(2,6-dioxopiperidin-3-yl)-1-oxoisoindolin-5-yl)piperazine-1-carbonyl)piperazin-1-yl)ethoxy)phenyl)-2-phenylbut-1-en-1-yl)phenyl)boronic acid], the IC50 in test [1] is less than 10 nM. Besides, the IC50 in test [2] is less than 10 nM. Further, in test [3], the DC50 is less than 10 nM and the Dmax is greater than 90%.

`CC/C(=C(\c1ccc(OCCN2CCN(CC3CCN(c4ccc5c(c4)CN(C4CCC(=O)NC4=O)C5=O)CC3)CC2)cc1)c1ccc(B(O)O)cc1)c1ccccc1` (stereo not drawn) [Compound 22, (E)-(4-(1-(4-(2-(4-((1-(2-(2,6-dioxopiperidin-3-yl)-1-oxoisoindolin-5-yl)piperidin-4-yl)methyl)piperazin-1-yl)ethoxy)phenyl)-2-phenylbut-1-en-1-yl)phenyl)boronic acid]: the IC50 in test [1] and in test [2] was less than 10 nM each time. Moreover, the DC50 in test [3] is less than 10 nM. For the same compound, in test [3], the Dmax was greater than 90%.

In the case of `CC/C(=C(\c1ccc(B(O)O)cc1)c1ccc(N2CCC(CNC3CCN(c4ccc5c(c4)C(=O)N(C4CCC(=O)NC4=O)C5=O)CC3)CC2)cc1)c1ccccc1` (stereo not drawn) [Compound 39, (Z)-(4-(1-(4-(4-(((1-(2-(2,6-dioxopiperidin-3-yl)-1,3-dioxoisoindolin-5-yl)piperidin-4-yl)amino)methyl)piperidin-1-yl)phenyl)-2-phenylbut-1-en-1-yl)phenyl)boronic acid], the IC50 in test [1] and in test [2] was 10 to 50 nM in each case. In test [3], this compound came in with a DC50 of less than 10 nM. Further, in test [3], the Dmax is greater than 90%.

With `CC/C(=C(\c1ccc(OCCN2CCC(CN3CCN(c4ccc5c(c4)C(=O)N(C4CCC(=O)NC4=O)C5=O)CC3)CC2)cc1)c1ccc(B(O)O)cc1)c1ccccc1` (stereo not drawn) [Compound 20, (E)-(4-(1-(4-(2-(4-((4-(2-(2,6-dioxopiperidin-3-yl)-1,3-dioxoisoindolin-5-yl)piperazin-1-yl)methyl)piperidin-1-yl)ethoxy)phenyl)-2-phenylbut-1-en-1-yl)phenyl)boronic acid], the IC50 in test [1] and in test [2] was greater than 50 nM each time. For the same compound, the DC50 in test [3] fell in the range of 10 to 50 nM. The Dmax in test [3] is greater than 75%.

With `CC/C(=C(\c1ccc(B(O)O)cc1)c1ccc(N2CCN(C(=O)N3CCC(N4CCN(c5ccc6c(c5)CN(C5CCC(=O)NC5=O)C6=O)CC4)CC3)CC2)cc1)c1ccccc1` (stereo not drawn) [Compound 110, (Z)-(4-(1-(4-(4-(4-(4-(2-(2,6-dioxopiperidin-3-yl)-1-oxoisoindolin-5-yl)piperazin-1-yl)piperidine-1-carbonyl)piperazin-1-yl)phenyl)-2-phenylbut-1-en-1-yl)phenyl)boronic acid], the IC50 in test [1] was less than 10 nM. Moreover, the IC50 in test [2] was in the range of 10 to 50 nM. In addition, in test [3], the DC50 fell in the range of 10 to 50 nM and the Dmax is greater than 90%.

As to `CC/C(=C(\c1ccc(OCCN2CCC(CCN3CCN(c4ccc5c(c4)CN(C4CCC(=O)NC4=O)C5=O)CC3)CC2)cc1)c1ccc(B(O)O)cc1)c1ccccc1` (stereo not drawn) [Compound 30, (E)-(4-(1-(4-(2-(4-(2-(4-(2-(2,6-dioxopiperidin-3-yl)-1-oxoisoindolin-5-yl)piperazin-1-yl)ethyl)piperidin-1-yl)ethoxy)phenyl)-2-phenylbut-1-en-l-yl)phenyl)boronic acid], the IC50 in test [1] is 10 to 50 nM. In test [2], the IC50 lay in the range of 10 to 50 nM. Also, in test [3], the DC50 is less than 10 nM and the Dmax is greater than 90%.

Regarding `CC/C(=C(/c1ccc(OCCN2CCN(CCCN3CCN(c4ccc5c(c4)C(=O)N(C4CCC(=O)NC4=O)C5=O)CC3)CC2)cc1)c1ccc(B(O)O)cc1)c1ccccc1` (stereo not drawn) [Compound 37, (Z)-(4-(1-(4-(2-(4-(3-(4-(2-(2,6-dioxopiperidin-3-yl)-1,3-dioxoisoindolin-5-yl)piperazin-1-yl)propyl)piperazin-1-yl)ethoxy)phenyl)-2-phenylbut-1-en-1-yl)phenyl)boronic acid], the IC50 in test [1] was 10 to 50 nM. In test [2], the IC50 is 10 to 50 nM. In test [3], the DC50 was less than 10 nM and the Dmax is greater than 90%.

As for `CC/C(=C(/c1ccc(OCCN2CCC(N3CCN(c4ccc5c(c4)C(=O)N(C4CCC(=O)NC4=O)C5=O)CC3)CC2)cc1)c1ccc(B(O)O)cc1)c1ccccc1` (stereo not drawn) [Compound 31, (Z)-(4-(1-(4-(2-(4-(4-(2-(2,6-dioxopiperidin-3-yl)-1,3-dioxoisoindolin-5-yl)piperazin-1-yl)piperidin-1-yl)ethoxy)phenyl)-2-phenylbut-1-en-1-yl)phenyl)boronic acid], in test [1], the IC50 was greater than 50 nM. Moreover, in test [2], the IC50 is greater than 50 nM. In test [3], the DC50 lay within 10 to 50 nM and the Dmax is greater than 90%.

Turning to `CC/C(=C(/c1ccc(OCCN2CCN(CC3CCN(c4ccc5c(c4)CN([C@@H]4CCC(=O)NC4=O)C5=O)CC3)CC2)cc1)c1ccc(B(O)O)cc1)c1ccccc1` [Compound 70], the IC50 in test [1] was less than 10 nM. Besides, in test [2], the IC50 is less than 10 nM. In test [3], the DC50 is less than 10 nM and the Dmax is greater than 90%.

Consider `CC/C(=C(/c1ccc(O)cc1)c1ccc(OCCN2CCN(C(=O)N3CCC(N4CCN(c5ccc6c(c5)CN(C5CCC(=O)NC5=O)C6=O)CC4)CC3)CC2)cc1)c1ccccc1` (stereo not drawn) [Compound 94, (E)-3-(5-(4-(1-(4-(2-(4-(1-(4-hydroxyphenyl)-2-phenylbut-1-en-1-yl)phenoxy)ethyl)piperazine-1-carbonyl)piperidin-4-yl)piperazin-1-yl)-1-oxoisoindolin-2-yl)piperidine-2,6-dione], for which the IC50 in test [1] is less than 10 nM. The IC50 in test [2] is less than 10 nM. Moreover, in test [3], the half-maximal degradation concentration (DC50) lay in the range of 10 to 50 nM and the Dmax was greater than 90%.

`CC/C(=C(/c1ccc(B(O)O)cc1)c1ccc(N2CCN(CCCC3CCN(c4ccc5c(c4)CN(C4CCC(=O)NC4=O)C5=O)CC3)CC2)cc1)c1ccccc1` (stereo not drawn) [Compound 58]: the IC50 in test [1] and in test [2] was 10 to 50 nM in each case. The compound further yielded a DC50 in test [3] of less than 10 nM. Also, the Dmax in test [3] was greater than 90%.
